Patent US9232798B2, “Pesticidal composition and its use” (SUMITOMO CHEMICAL COMPANY, LIMITED, priority 2010, dated 2016)

Test system: Rhizoctonia solani
Test: Soybean seed treatment test against Rhizoctonia solani in contaminated soil (Test Example)
Format: in vivo, Rhizoctonia solani on soybean (variety: Natto shoryu)
Conditions: carboxamide compound alone 0.2 g/100 kg of seeds (no fipronil), soybean grown 20 days in soil contaminated by Rhizoctonia solani, from disease severity versus non-treated plot
Procedure: A cyclohexanone solution (100 microL) containing prescribed amount (weight) of a test compound was applied on seeds of soybean (variety: Natto shoryu) (10 g) by using a rotary apparatus for seed treatment (Seed dresser, manufactured by Hans-Ulrich Hege GmbH).
One day after the treatment, plastic pot was filled with soil contaminated by Rhizoctonia solani, and the seeds treated with the test compounds were seeded in the soil and cultivated in a glass-greenhouse for 20 days (hereinafter referred to as “treated plot”).
Thereafter, the presence of disease caused by Rhizoctonia solani in the young plants which germinated from each seed was observed and disease severity was calculated according to the following calculation formula (1).
On the other hand, seeds of soybean which were not treated as above were cultivated in the same way as above (hereinafter referred to as “non-treated plot”) and the disease severity in “non-treated plot” was calculated in the same way as above “treated plot”. On the basis of the above disease severity in “treated plot” and the “non-treated plot”, efficacy in “treated plot” was evaluated according to the following calculation formula (2). […]

For `CC1CC(C)(C)c2cccc(NC(=O)c3cn(C)nc3C(F)F)c21` (stereo not shown) [carboxamide compound (1)], the “efficacy (%)” value was 42.1%.
